Assay: xn = mol fraction of the nth substance listed

CCCCCCCCCCC + CCCCCCCCCC
298.15 K, 101.33 kPa
Details	viscosity [mPa·s]
x2 = 0.1074	1.056
x2 = 0.2094	1.03
x2 = 0.3054	1.009
x2 = 0.4086	0.9854
x2 = 0.5085	0.9556
x2 = 0.608	0.9393
x2 = 0.7092	0.9206
x2 = 0.8045	0.9013
x2 = 0.9056	0.868

COCC(C)OCC(C)O (centres undefined) + CCO
viscosity [mPa·s], 101.33 kPa
Details	298.15 K	308.15 K	318.15 K
x1 = 0.05	1.237	1.014	0.84
x1 = 0.1	1.385	1.119	0.92
x1 = 0.1501	1.525	1.218	0.996
x1 = 0.2	1.661	1.32	1.073
x1 = 0.2501	1.803	1.421	1.148
x1 = 0.3	1.941	1.521	1.225
x1 = 0.35	2.081	1.623	1.301
x1 = 0.4001	2.216	1.723	1.379
x1 = 0.45	2.35	1.82	1.451
x1 = 0.5	2.485	1.916	1.525
x1 = 0.5497	2.616	2.006	1.594
x1 = 0.6	2.744	2.099	1.662
x1 = 0.6497	2.871	2.192	1.726
x1 = 0.7001	3.001	2.281	1.796
x1 = 0.75	3.125	2.365	1.857
x1 = 0.8001	3.241	2.449	1.922
x1 = 0.8497	3.359	2.531	1.979
x1 = 0.8996	3.472	2.61	2.036
x1 = 0.9498	3.579	2.686	2.09

OCCCO + CC(O)CO
viscosity [mPa·s], 101 kPa
Details	x2 = 0.1014	x2 = 0.2101	x2 = 0.2999	x2 = 0.4071	x2 = 0.5013	x2 = 0.5925	x2 = 0.7113	x2 = 0.8005	x2 = 0.9208
298.15 K	42.34	42.71	–	–	43.62	43.82	43.95	43.88	–
303.15 K	–	34.03	34.2	34.39	34.49	34.55	34.49	34.36	34.11
308.15 K	27.18	27.11	27.05	–	–	–	26.36	26.06	25.59

NC=O + CC(C)(C)O
308 K, 101 kPa
Details	viscosity [mPa·s]
x1 = 0.1112	2.784
x1 = 0.2296	3.129
x1 = 0.3735	3.402
x1 = 0.5054	3.512
x1 = 0.6138	3.505
x1 = 0.7045	3.383
x1 = 0.7815	3.224
x1 = 0.8476	3.024
x1 = 0.9051	2.817

OCCCO + CN(C)C=O
308.15 K, 101 kPa
Details	viscosity [mPa·s]
x1 = 0.0229	0.76
x1 = 0.0468	0.834
x1 = 0.0914	0.904
x1 = 0.2048	1.267
x1 = 0.3032	1.748
x1 = 0.397	2.4
x1 = 0.4994	3.516
x1 = 0.597	5.056
x1 = 0.699	7.606
x1 = 0.7983	11.93
x1 = 0.9001	17.75
x1 = 0.9477	20.44

CCOC(=O)CCC(=O)OCC + CCCCCCO
293.15 K, 100 kPa
Details	viscosity [mPa·s]
x1 = 0.4999	2.495
x1 = 0.7999	2.495
